Patent publication US6403343B2, “Method of producing a taxane-type diterpene and a method of obtaining cultured cells which produce the taxane-type dilterpene at a high rate” (Mitsui Chemicals, Inc., priority 1993, dated 2002)

Tested on: cultured cells of Taxus baccata LINN
Assay: Growth rate and taxane yield, 21-day shake culture of Taxus baccata cells with heavy metal compound, amine, antiethylene agent or Ethrel added
Assay type: cell-based
Method: (§1) One gram (fresh weight) of the callus was inoculated to an Erlenmeyer flask containing 20 ml of liquid Woody Plant Medium to which the above-mentioned component was added to give the same concentration and shake culture was carried out with a rotary shaker (amplification of 25 mm, 100 rpm) and the callus was subcultured in every 21 days to accelerate the growth rate thereof.
Then shake culture was carried out at 25° C. for 21 days.
After completing the culture, cultured cells of Taxus baccata LINN were harvested by filtration and lyophilized, then the dry weight was measured to obtain the growth rate thereof. Taxane-type diterpenes were extracted from the dried callus with methanol and the like, and they were determined by comparing with standard taxol, cephalomannine, and baccatin III using high performance liquid chromatography to measure the yields of the taxane-type diterpenes.
as §1
One gram (fresh weight) of the cultured cells thus obtained was inoculated to an Erlenmeyer flask containing 20 ml of liquid Woody Plant Medium to which the above-mentioned component had been added to give the same concentration, then spermidine was added to it as amine to give the final concentration of 10^−9M-1M. Then shake culture was carried out at 25° C. for 21 days.
After completing the culture, cultured cells of Taxus baccata LINN were harvested by filtration and lyophilized, then the dry weight was measured to obtain the growth rate thereof. Taxane-type diterpenes were extracted from the dried cells with methanol and the like, and they were determined by comparing with standard taxol, cephalomannine, and baccatin III using high performance liquid chromatography to measure the yields of the taxane-type diterpene.
One gram (fresh weight) of the callus was inoculated to an Erlenmeyer flask containing 20 ml of liquid Woody Plant Medium to which the above-mentioned component had been added to give the same concentration and shake culture was carried out with a rotary shaker (amplification of 25 mm, 100 rpm) and the callus was subcultured in every 21 days to accelerate the growth rate thereof.
One gram (fresh weight) of the cultured cells thus obtained was inoculated to an Erlenmeyer flask containing 20 ml of liquid Woody Plant Medium to which the above-mentioned component had been added to give the same concentration, and shake culture was carried out at 25° C. for 14 days.

[1] = 1 M added on 14th day, 7 more days
[2] = 10^−1 M added on 14th day, 7 more days
[3] = 10^−2 M added on 14th day, 7 more days
[4] = 10^−3 M added on 14th day, 7 more days
[5] = 10^−4 M added on 14th day, 7 more days
[6] = 10^−5 M added on 14th day, 7 more days
[7] = 10^−6 M added on 14th day, 7 more days
[8] = 10^−7 M added on 14th day, 7 more days
[9] = 10^−8 M added on 14th day, 7 more days
[10] = 10^−9 M added on 14th day, 7 more days
[11] = 10^−1 M added at start, 21 days
[12] = 10^−2 M added at start, 21 days
[13] = 10^−3 M added at start, 21 days
[14] = 10^−4 M added at start, 21 days
[15] = 10^−5 M added at start, 21 days
[16] = 10^−6 M added at start, 21 days
[17] = 10^−7 M added at start, 21 days
[18] = 10^−8 M added at start, 21 days
[19] = 10^−9 M added at start, 21 days

Compound: CCCOC(=O)c1cc(O)c(O)c(O)c1 [propyl gallate]
- growth rate [1]: 1.1 times
- total yield of taxane [1]: 0.01 mg/L
- yield of baccatin III [1]: 0.01 mg/L
- yield of cephalomannine [1]: 0 mg/L
- yield of taxol [1]: 0 mg/L
- growth rate [2]: 1.9 times
- total yield of taxane [2]: 1.38 mg/L
- yield of baccatin III [2]: 0.48 mg/L
- yield of cephalomannine [2]: 0.25 mg/L
- yield of taxol [2]: 0.65 mg/L
- growth rate [3]: 2.9 times
- total yield of taxane [3]: 7.03 mg/L
- yield of baccatin III [3]: 0.69 mg/L
- yield of cephalomannine [3]: 2.01 mg/L
- yield of taxol [3]: 4.33 mg/L
- growth rate [4]: 3.2 times
- total yield of taxane [4]: 12.10 mg/L
- yield of baccatin III [4]: 0.84 mg/L
- yield of cephalomannine [4]: 4.30 mg/L
- yield of taxol [4]: 6.96 mg/L
- growth rate [5]: 3.0 times
- total yield of taxane [5]: 12.27 mg/L
- yield of baccatin III [5]: 0.87 mg/L
- yield of cephalomannine [5]: 4.42 mg/L
- yield of taxol [5]: 6.98 mg/L
- growth rate [6]: 3.0 times
- total yield of taxane [6]: 16.13 mg/L
- yield of baccatin III [6]: 2.82 mg/L
- yield of cephalomannine [6]: 5.07 mg/L
- yield of taxol [6]: 8.24 mg/L
- growth rate [7]: 3.1 times
- total yield of taxane [7]: 13.95 mg/L
- yield of baccatin III [7]: 1.91 mg/L
- yield of cephalomannine [7]: 4.38 mg/L
- yield of taxol [7]: 7.66 mg/L
- growth rate [8]: 2.7 times
- total yield of taxane [8]: 2.79 mg/L
- yield of baccatin III [8]: 0.55 mg/L
- yield of cephalomannine [8]: 0.72 mg/L
- yield of taxol [8]: 1.52 mg/L
- growth rate [9]: 2.7 times
- total yield of taxane [9]: 1.74 mg/L
- yield of baccatin III [9]: 0.42 mg/L
- yield of cephalomannine [9]: 0.68 mg/L
- yield of taxol [9]: 0.74 mg/L
- growth rate [10]: 2.7 times
- total yield of taxane [10]: 1.37 mg/L
- yield of baccatin III [10]: 0.41 mg/L
- yield of cephalomannine [10]: 0.59 mg/L
- yield of taxol [10]: 0.37 mg/L

Compound: NCCCCN [putrescine]
- growth rate (1 M added at start, 21 days): 1.0 times
- total yield of taxane (1 M added at start, 21 days): 0.36 mg/L
- yield of baccatin III (1 M added at start, 21 days): 0.01 mg/L
- yield of cephalomannine (1 M added at start, 21 days): 0.22 mg/L
- yield of taxol (1 M added at start, 21 days): 0.13 mg/L
- growth rate [11]: 1.1 times
- total yield of taxane [11]: 2.74 mg/L
- yield of baccatin III [11]: 0.80 mg/L
- yield of cephalomannine [11]: 0.97 mg/L
- yield of taxol [11]: 0.97 mg/L
- growth rate [12]: 1.8 times
- total yield of taxane [12]: 3.18 mg/L
- yield of baccatin III [12]: 1.13 mg/L
- yield of cephalomannine [12]: 0.99 mg/L
- yield of taxol [12]: 1.06 mg/L
- growth rate [13]: 2.2 times
- total yield of taxane [13]: 6.90 mg/L
- yield of baccatin III [13]: 1.95 mg/L
- yield of cephalomannine [13]: 1.88 mg/L
- yield of taxol [13]: 3.07 mg/L
- growth rate [14]: 2.6 times
- total yield of taxane [14]: 22.65 mg/L
- yield of baccatin III [14]: 6.60 mg/L
- yield of cephalomannine [14]: 5.25 mg/L
- yield of taxol [14]: 10.80 mg/L
- growth rate [15]: 3.1 times
- total yield of taxane [15]: 23.79 mg/L
- yield of baccatin III [15]: 6.98 mg/L
- yield of cephalomannine [15]: 5.37 mg/L
- yield of taxol [15]: 11.44 mg/L
- growth rate [16]: 3.0 times
- total yield of taxane [16]: 19.44 mg/L
- yield of baccatin III [16]: 5.74 mg/L
- yield of cephalomannine [16]: 5.51 mg/L
- yield of taxol [16]: 8.19 mg/L
- growth rate [17]: 2.7 times
- total yield of taxane [17]: 6.88 mg/L
- yield of baccatin III [17]: 1.10 mg/L
- yield of cephalomannine [17]: 2.31 mg/L
- yield of taxol [17]: 3.47 mg/L
- growth rate [18]: 2.8 times
- total yield of taxane [18]: 2.94 mg/L
- yield of baccatin III [18]: 0.40 mg/L
- yield of cephalomannine [18]: 1.02 mg/L
- yield of taxol [18]: 1.52 mg/L
- growth rate [19]: 2.8 times
- total yield of taxane [19]: 1.75 mg/L
- yield of baccatin III [19]: 0.36 mg/L
- yield of cephalomannine [19]: 0.70 mg/L
- yield of taxol [19]: 0.69 mg/L

Compound: O=[N+]([O-])[O-].[Ag+] [silver nitrate]
- growth rate [13]: 2.8 times
- total yield of taxane [13]: 23.21 mg/L
- yield of baccatin III [13]: 3.01 mg/L
- yield of cephalomannine [13]: 7.54 mg/L
- yield of taxol [13]: 12.66 mg/L
- growth rate [4]: 2.8 times
- total yield of taxane [4]: 20.58 mg/L
- yield of baccatin III [4]: 2.18 mg/L
- yield of cephalomannine [4]: 6.49 mg/L
- yield of taxol [4]: 11.91 mg/L
